From patent US11279678B2 (SHANGHAI ECUST BIOMEDICINE CO., LTD., priority 2017, dated 2022) come the findings set out here.

In general, LD50 refers to the dose expected to kill half of the subjects tested. A high value points to lower toxicity.

For data set [1], the system named is human breast cancer cell MDA-MB-231. The data set can be described thus: In vitro antitumor activity on tumor cell lines (CCK-8 method), MDA-MB-231. The data set is classed as cell-based. The settings on record: MDA-MB-231, 72 hours. On the procedure:
(§1) Evaluation of In Vitro Antitumor Activity of Compounds on Multiple Tumor Cell Lines (CCK-8 Method)
(§2) Take the living cells with more than 90% cells for testing. The cell proliferation inhibition test was performed using the EnoGeneCell™ Counting Kit-8 (CK-8) cell viability test kit. The cell was digested, counted and prepared into a cell suspension with a concentration of 1×10^5/mL. 100 μL cell suspension (1×10^4 cells per hole) was added to each hole in the 96-well plate. The 96-well plate was cultured in a 37° C., 5% CO2 incubator for 24 hours. With every hole added with 100 μL respective drugged cultured medium, control groups were set up, including negative control group, solvent control group, and positive control group. Each group has 5 holes. The 96-well plates were cultured at 37° C., in 5% CO2 incubator for 72 hours. Afterward, 10 μL CCK-8 solution was added to each hole, and the culture plate was incubated in the incubator for 4 hours, and the OD value at 450 nm was determined by enzyme labeling instrument. The inhibition rate and IC50 value of these compounds on tumor cells such as human gastric cancer cell MGC-803, human liver cancer cell HepG2, human lung cancer cell A549 and human breast cancer cell MDA-MB-231 were calculated.
For orientation: Formazan colour is commonly taken as a measure of viable cells.

Data set [2] relates to human liver cancer cell HepG2. The data set can be described thus: In vitro antitumor activity on tumor cell lines (CCK-8 method), HepG2. Format: cell-based. Conditions: HepG2, 72 hours. The procedure: as §1, §2
Data set [3] deals with human gastric cancer cell MGC-803. The data set can be described thus: In vitro antitumor activity on tumor cell lines (CCK-8 method), MGC-803. The data set is classed as cell-based. The settings on record: MGC-803, 72 hours. The procedure: as §1, §2
The test system of data set [4] is Hela cervical cancer cell line. The data set can be described thus: In vitro proliferation inhibition of Hela cervical cancer cell line (MTT method). The data set is classed as cell-based. The settings on record: for pIC50: Hela cervical cancer cell line. On the procedure:
Evaluation of In Vitro Antitumor Activity of Hela Cervical Cancer Tumor Cell Lines with Compounds (MTT Method)
The cells were cultured in RPMI1640 medium containing 200 mL/L fetal bovine serum so that the cells were kept at logarithmic growth. The cells were inoculated to 96-well plate, with a density of 4˜8×10^4/ml, 37° C., and pre-cultured for 24 hours with added drugs. The drugs were set at 6 concentrations, each has 3 holes. After 48 hours of consequent effect, the nutrient solution was then removed and the cells were left for air-drying. Each hole was then added with cold 500 g/L trichloroacetic acid (TCA) 50 μL (final concentration of 100 g/L). After setting for 60 minutes, it was then rinsed for 4-5 times with ionized water and dried. Each hole then was added with 4 g/L SRB 100 μL left for 30 mins. Then it was rinsed with 10 mL/L acetic acid for 4 times, dried. Then 10 mmol Tris-base 200 μL per hole was added, then shaked and mixed, subsequently, oscillating on the plate oscillator for 5 min. The enzyme-linked immunoassay was used to determine the A value. To calibrate, a blank control was used, with a wavelength of 490 nm. Tumor inhibition rate (%)=(Average A value of the control cell hole−Average A value of the drugged hole A)/Average A value of the control cell hole×100%. The positive control cell holes were CA4, CB1, and CB1N. To calculate the IC50 value, the Logit method was used according to the cell growth inhibition rate of different concentrations of the drug.

The test system of data set [5] is human lung cancer cell A549. The data set is described as follows: In vitro antitumor activity on tumor cell lines (CCK-8 method), A549. Format: cell-based. Conditions: A549, 72 hours. The procedure:
as §1, §2

Another data set can be described thus: in vivo. The settings on record: both, Kunming, mouse, po.
For data set [6], the system named is gastric cancer MGC-803 transplanted tumor. The data set can be described thus: Antitumor rate of oral administration in mice with MGC-803 transplanted tumor. Conditions: for Tumor inhibition rate (%): d0-d12 every 2 days, 7 times, tumor weight; for tumor size course: about 8 days after administration. Format: in vivo. The procedure: Antitumor rate of oral administration of the compound towards MGC-803 mice with transplanted tumor
After 1 week of adaptation, the mice were inoculated with gastric cancer MGC-803 tumor tissue subcutaneously. After the tumor grew for 100-300 mm^3, the animals were randomly grouped. For the drug group, each group of each compound had 6 mice, and 12 mice were in the control group. The intragastric administration was employed and the dosage of Ii, Ij, Ik and Il was 25 and 50 mg/kg. The positive control was CA4, the administration time was d0, d2, d4, d6, d8, d10, d12 days, 7 times in total. The tumor size was measured 3 times per week, together with mice weight. The mice were executed 14 days after inoculation and the tumor mass was taken and measured for its weight. The tumor inhibition rate was calculated as tumor weight inhibition rate, and the formula is tumor weight inhibition rate %=(1-treatment group average tumor weight/control group average tumor weight)×100%.

The conditions of data set [7]: single intragastric administration, mice.
Method: (§3) Acute Toxicity Test of Single Gastric Administration in Mice
(§4) Kunming mice (weight 17-22 g, equal male and female) were randomly grouped according to body weight, with 10 mice maximum per dose group in the experiment. […] Given by single intraperitoneal injection and a single intragastric injection, observations were done after 0.25 h, 0.5 h, 1 h, 2 h, 4 h, and 24 h respectively. The mortality rate was recorded. Afterward, the groups were observed once everyday, and the mortality rate was recorded for 14 days. On day 15, the living mice were sacrificed for pathological dissection.
[8] abbreviates: Homo sapiens, 48 hours drug exposure, read-out: IC50.
Setting [9] is: 48 hours drug exposure, read-out: IC50.

pIC50: −log10 of the molar value. Like-named read-outs stand apart in the source and are kept apart here.

Method for in vivo: as §3, §4

`COc1ccc(/C=C\c2cc(OC)c(OC)c(OC)c2)cc1O` [CA4, combretastatin A-4, reference compound]: the pIC50 in data set [1] (Homo sapiens) was 8.48; in data set [2] (Homo sapiens) it was 2.89; in data set [3] (Homo sapiens), 7.69; in data set [4] (setting [8]), 6.40; in data set [4] (Homo sapiens, read-out: IC50 values, Hela proliferation inhibition) it was 6.40; in data set [5] (Homo sapiens), 8.60. The compound further gave an LD50 in “in vivo” of 1280 mg/kg.

In the case of `COc1ccc(/C=C\c2cc(OC)c(OC)c(OC)c2)cc1OC(=O)CCn1cc(F)c(=O)[nH]c1=O` [Compound Ik, (Z)-5-(3,4,5-trimethoxystyryl)-2-methoxyphenyl-3-(5-fluoro-2,4-dioxo-3,4-dihydropyrimidin-1(2H)-yl)propanoate], the “Tumor inhibition rate (%)” value in data set [6] (25 mg/kg intragastric) was determined as 48%; in data set [6] (50 mg/kg intragastric), 75%. Besides, the tumor size course entry in data set [6] is listed as “tendency to shrink”. Besides, the pIC50 in data set [1] (Homo sapiens) was 4.09; in data set [2] (Homo sapiens), 5.13; in data set [3] (Homo sapiens), over 9.52; in data set [4] (setting [8]) it was 7.53; in data set [5] (Homo sapiens), over 9.52. Further, in data set [7], the “LD50” value is on record as 1185 mg/kg. In the data set “in vivo”, the LD50 at 14 days was over 1000 mg/kg.

For the compound `COc1ccc(CCc2cc(OC)c(OC)c(OC)c2)cc1O` [Erianin, reference compound], in data set [7], the “LD50” value is 2531 mg/kg.

Regarding `COc1ccc(CCc2cc(OC)c(OC)c(OC)c2)cc1OC(=O)Cn1cc(F)c(=O)[nH]c1=O` [Compound Ij, 2-methoxy-5-(3,4,5-trimethoxyphenethyl)-phenyl-2-(5-fluoro-2,4-dioxo-3,4-dihydropyrimidin-1(2H)-yl)acetate], the entries for the “Tumor inhibition rate (%)” value in data set [6] (25 mg/kg intragastric) and in data set [6] (50 mg/kg intragastric) were 53% and 80%, respectively. The tumor size course entry in data set [6] is recorded as “tendency to shrink”. In addition, the pIC50 in data set [1] is 4.81; in data set [2] it was 6.85; in data set [3], over 9.52; in data set [4] (setting [9]), 7.49; in data set [5], over 9.52. Besides, the “LD50” value in data set [7] is on record as 1015 mg/kg.

For `CCOc1ccc(CCc2cc(OC)c(OC)c(OC)c2)cc1OC(=O)Cn1cc(F)c(=O)[nH]c1=O` [Compound In, 5-(3,4,5-trimethoxyphenethyl)-2-ethoxyphenyl 2-(5-fluoro-2,4-dioxo-3,4-dihydropyrimidin-1(2H)-yl)acetate], the pIC50 was 3.99 in data set [1] (Homo sapiens); 3.33 in data set [2] (Homo sapiens); 4.71 in data set [3] (Homo sapiens); 7.40 in data set [4] (setting [8]); 5.37 in data set [5] (Homo sapiens).

With `COc1ccc(C=Cc2cc(OC)c(OC)c(OC)c2)cc1NC(=O)CCn1cc(F)c(=O)[nH]c1=O` [Compound Ic, 3-(5-fluoro-2,4-dioxo-3,4-dihydropyrimidin-1(2H)-yl)-N-(5-(3,4,5-trimethoxystyryl)-2-methoxyphenyl)-propanamide], the pIC50 is 3.91 in data set [1] (Homo sapiens); 3.82 in data set [2] (Homo sapiens); 4.31 in data set [3] (Homo sapiens); 7.54 in data set [4] (setting [8]); 4.24 in data set [5] (Homo sapiens). Besides, in data set [4] (ratio to 5-fluorouracil), the “proliferation inhibitory activity on Hela compared to 5-fluorouracil” value is 4 times. Further, the “proliferation inhibitory activity on Hela compared to CA4” value in data set [4] (ratio to CA4) is on record as 14 times.

On to `COc1ccc(CCc2cc(OC)c(OC)c(OC)c2)cc1NC(=O)Cn1cc(F)c(=O)[nH]c1=O` [Compound Ib, 2-(5-fluoro-2,4-dioxo-3,4-dihydropyrimidin-1(2H)-yl)-N-(5-(3,4,5-trimethoxyphenethyl)-2-methoxyphenyl)-acetamide], for which the pIC50 in data set [1] (Homo sapiens) was 5.49; in data set [2] (Homo sapiens), over 6.72; in data set [3] (Homo sapiens) it was 5.73; in data set [4] (setting [8]) it was 7.54; in data set [5] (Homo sapiens), over 6.72.

On to `COc1ccc(CCc2cc(OC)c(OC)c(OC)c2)cc1OC(=O)CCn1cc(F)c(=O)[nH]c1=O` [Compound Il, 5-(3,4,5-trimethoxyphenethyl)-2-methoxyphenyl-3-(5-fluoro-2,4-dioxo-3,4-dihydropyrimidin-1(2H)-yl)propanoate], for which the “Tumor inhibition rate (%)” value was 65% in data set [6] (25 mg/kg intragastric) and 90% in data set [6] (50 mg/kg intragastric). In addition, in data set [6], the tumor size course result is “tendency to shrink”. Besides, the pIC50 is 9.60 in data set [1] (Homo sapiens); 9.40 in data set [2] (Homo sapiens); over 9.52 in data set [3] (Homo sapiens); 7.53 in data set [4] (setting [8]); over 9.52 in data set [5] (Homo sapiens). Further, the median lethal dose (LD50) in data set [7] is on record as 1228 mg/kg. The compound also came in with an LD50 at 14 days in the data set “in vivo” of over 1000 mg/kg.

`COc1ccc(/C=C\c2cc(OC)c(OC)c(OC)c2)cc1OC(=O)Cn1cc(F)c(=O)[nH]c1=O` [Compound Ii, (Z)-2-methoxy-5-(3,4,5-trimethoxystyryl)-phenyl-2-(5-fluoro-2,4-dioxo-3,4-dihydropyrimidin-1(2H)-yl)acetate]: the “Tumor inhibition rate (%)” value in data set [6] (25 mg/kg intragastric) was 62%; in data set [6] (50 mg/kg intragastric), 85%. In addition, in data set [6], the tumor size course result is “tendency to shrink”. Further, the pIC50 in data set [1] is 6.40; in data set [2], 7.64; in data set [3], over 9.52; in data set [4] (setting [9]), 7.50; in data set [5] it was over 9.52. The “LD50” value in data set [7] amounted to 1059 mg/kg.
